Results published in ChEMBL document CHEMBL1201862, “PubChem BioAssay data set” (2004).
Calls of active or inactive are those of the source. For most assays here, no stated cut-off is given here; in the data, actives have a measured IC50 and inactives only a lower limit.

Assays:
Type in all cases: functional
Protein RecA = molecular target: T1, Protein RecA (Mycobacterium tuberculosis, UniProt P9WHJ3); assay: Fluorescence Cell-Free Homogeneous Dose Retest to Identify Inhibitors of RecA-Intein Splicing Activity. [Related pubchem assays (depositor defined):AID2097, AID2223, AID489010, AID492950]
T1 sequence (P9WHJ3 whole entry): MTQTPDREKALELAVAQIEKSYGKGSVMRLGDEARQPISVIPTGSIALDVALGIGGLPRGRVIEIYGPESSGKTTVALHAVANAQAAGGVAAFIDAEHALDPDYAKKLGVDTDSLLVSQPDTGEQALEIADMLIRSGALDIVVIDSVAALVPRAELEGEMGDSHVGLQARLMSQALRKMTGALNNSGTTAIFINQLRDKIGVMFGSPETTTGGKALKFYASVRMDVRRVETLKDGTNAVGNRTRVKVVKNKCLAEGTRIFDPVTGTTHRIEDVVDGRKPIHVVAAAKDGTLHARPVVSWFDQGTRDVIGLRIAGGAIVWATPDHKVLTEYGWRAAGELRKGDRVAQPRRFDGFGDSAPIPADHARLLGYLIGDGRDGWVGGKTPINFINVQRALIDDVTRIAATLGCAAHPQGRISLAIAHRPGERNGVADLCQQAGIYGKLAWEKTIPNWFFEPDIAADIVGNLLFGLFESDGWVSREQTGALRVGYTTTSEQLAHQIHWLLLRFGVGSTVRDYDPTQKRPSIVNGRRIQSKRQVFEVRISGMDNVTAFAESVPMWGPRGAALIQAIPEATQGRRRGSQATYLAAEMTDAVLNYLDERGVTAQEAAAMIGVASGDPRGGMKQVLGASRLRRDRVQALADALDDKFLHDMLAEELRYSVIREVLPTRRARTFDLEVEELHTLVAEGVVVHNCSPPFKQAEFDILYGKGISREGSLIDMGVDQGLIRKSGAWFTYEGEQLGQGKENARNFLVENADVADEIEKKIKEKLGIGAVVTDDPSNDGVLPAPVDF

[1] = molecular target: T2, Apoptotic protease-activating factor 1 (Homo sapiens, UniProt O14727)
T2 sequence (O14727 whole entry): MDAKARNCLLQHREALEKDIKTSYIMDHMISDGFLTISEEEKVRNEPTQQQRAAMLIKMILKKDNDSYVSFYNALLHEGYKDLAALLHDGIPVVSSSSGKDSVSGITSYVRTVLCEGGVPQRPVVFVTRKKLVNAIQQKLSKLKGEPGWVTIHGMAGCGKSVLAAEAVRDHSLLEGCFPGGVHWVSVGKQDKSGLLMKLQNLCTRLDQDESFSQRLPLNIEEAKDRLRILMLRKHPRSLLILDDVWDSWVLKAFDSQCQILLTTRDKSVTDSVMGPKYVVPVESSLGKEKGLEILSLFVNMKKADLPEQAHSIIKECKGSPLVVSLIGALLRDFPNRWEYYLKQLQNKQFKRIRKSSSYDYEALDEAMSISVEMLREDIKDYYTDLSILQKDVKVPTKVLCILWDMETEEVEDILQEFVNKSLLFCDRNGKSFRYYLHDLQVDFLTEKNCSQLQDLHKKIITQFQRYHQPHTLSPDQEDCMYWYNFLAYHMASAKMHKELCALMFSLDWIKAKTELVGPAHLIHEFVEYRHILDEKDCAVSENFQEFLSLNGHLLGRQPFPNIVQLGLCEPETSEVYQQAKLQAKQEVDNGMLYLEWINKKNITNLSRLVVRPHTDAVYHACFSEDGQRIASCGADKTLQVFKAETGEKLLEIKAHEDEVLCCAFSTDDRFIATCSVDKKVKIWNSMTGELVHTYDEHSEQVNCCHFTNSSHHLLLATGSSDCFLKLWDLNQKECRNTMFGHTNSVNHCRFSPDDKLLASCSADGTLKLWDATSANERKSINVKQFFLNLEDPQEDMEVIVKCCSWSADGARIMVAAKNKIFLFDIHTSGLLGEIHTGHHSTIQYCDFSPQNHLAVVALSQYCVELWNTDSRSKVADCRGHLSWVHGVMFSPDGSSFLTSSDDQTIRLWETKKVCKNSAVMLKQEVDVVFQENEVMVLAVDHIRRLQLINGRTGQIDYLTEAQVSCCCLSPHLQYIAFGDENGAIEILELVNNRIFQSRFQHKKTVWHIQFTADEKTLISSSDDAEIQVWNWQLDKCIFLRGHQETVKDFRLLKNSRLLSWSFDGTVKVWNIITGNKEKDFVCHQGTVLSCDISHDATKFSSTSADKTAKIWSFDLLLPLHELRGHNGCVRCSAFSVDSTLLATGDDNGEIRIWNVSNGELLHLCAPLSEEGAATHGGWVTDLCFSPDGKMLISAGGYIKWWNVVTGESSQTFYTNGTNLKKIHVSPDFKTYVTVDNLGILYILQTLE

[2] = molecular target: T3, Sentrin-specific protease 8 (Homo sapiens, UniProt Q96LD8);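 further: luminescence read-out of SENP8 inhibition, dose-response confirmation following an ultra-high-throughput screen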
T3 sequence (Q96LD8 whole entry): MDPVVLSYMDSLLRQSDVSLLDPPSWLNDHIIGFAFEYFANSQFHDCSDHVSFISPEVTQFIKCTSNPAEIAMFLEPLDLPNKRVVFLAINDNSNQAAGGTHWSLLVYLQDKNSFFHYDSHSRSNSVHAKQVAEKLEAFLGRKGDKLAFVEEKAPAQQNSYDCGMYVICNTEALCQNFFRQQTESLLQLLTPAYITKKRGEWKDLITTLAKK

Caspase-3 = molecular target: T4, Caspase-3 (Homo sapiens, UniProt P42574);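 further: Dose-response selectivity test against caspase-3 for candidate inhibitors of sentrin-specific proteases (SENPs)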
T4 sequence (P42574 whole entry): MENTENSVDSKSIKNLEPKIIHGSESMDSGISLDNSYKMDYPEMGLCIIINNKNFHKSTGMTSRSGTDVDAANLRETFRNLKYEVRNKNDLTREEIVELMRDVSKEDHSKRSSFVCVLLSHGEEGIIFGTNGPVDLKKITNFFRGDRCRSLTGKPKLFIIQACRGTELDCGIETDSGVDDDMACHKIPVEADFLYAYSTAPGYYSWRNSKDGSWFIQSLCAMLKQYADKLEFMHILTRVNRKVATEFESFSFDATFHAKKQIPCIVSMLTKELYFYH

Row | SMILES | EC50 (Protein RecA) | IC50 [1] | IC50 [2] | IC50 (Caspase-3)
1 | O=C1C(Cl)=C(NCc2cccnc2)C(=O)c2ccccc21 | 2.17 µM (active) | 10.1 µM (active) | – | –
2 | Cc1cnc(NC(=O)c2sc3ccccc3c2Cl)s1 | – | – | 2.56 µM (active) | 6.67 µM (active)
3 | Cc1ccc(Nc2cc(C)nn2-c2nc(C)cc(O)n2)cc1 | 61.4 µM (active) | – | – | –
4 | Cc1ccc(C(=O)c2c(C)oc3c2C(=O)C(=O)c2ccccc2-3)cc1 | – | 8.09 µM (active) | 7.82 µM (active) | 29.1 µM (active)
5 | CN(C)c1ncc(C2=C(Cl)C(=O)C(N3CCCC3)=C(Cl)C2=O)s1 | 3.81 µM (active) | 25 µM (active) | – | –
6 | O=C1C(O)=C/C(=N\c2ccccc2O)c2ccccc21 | 12.3 µM (active) | 2.61 µM (active) | 5.23 µM (active) | 8.23 µM (active)
7 | Nc1ccc(Br)c2cccnc12 | – | 39.1 µM (active) | 10 µM (active) | 10.4 µM (active)
